* marks the point of attachment. Myristoyl = CCCCCCCCCCCCCC(=O)*
What was measured:
[1] = system: CFA-induced hyperalgesia in mice; test: CFA injection: mechanical (von Frey) and thermal (Hargreaves) hyperalgesia; assay type: in vivo, mouse; details: peptide 5 μl of 2 mM; 3 hours after treatment
Protocol: Mice were placed in a transparent plastic box (4.5×5×10 cm) on a metal mesh and acclimatized for 30 minutes prior to testing. Each mouse was tested more than 5 times at a specific force manually, and the threshold was determined by the lowest force needed to elicit responses more than 50% of the time.
Mice were placed under a transparent plastic box (4.5×5×10 cm) on a glass platform (Plantar Test Apparatus, IITC Life Science). Radiant heat was adjusted to 18% of maximal output and shone on the center of the paws. Each mouse was tested more than 3 times, with each test performed 20 minutes apart.
Mice were injected with 6 μL of 50% emulsified Complete Freund's Adjuvant (Sigma, F5881) in normal saline.
The sequence from the last 28 amino acids of the C-terminus of the Tmem100-3Q mutant protein was synthesized and myristoylated at its N-terminus (myr-[…]-COOH) (SEQ ID NO: 8) by Twentyfirst Century Biochemicals. […] For the calcium imaging assay, the peptides were added to the calcium imaging buffer with a final concentration of 200 nM and incubated for at least […] at room temperature. For the mice behavioral assays, the peptides (5 μL, 2 mM) were injected subcutaneously in the hindpaw at least 30 minutes before testing. For the rat behavior assays, human T100-3Q (h-T100), a palmitoylated cell permeable peptide mutated based on the C terminus of human sequence in Tmem100, was applied. […]

[2] = system: capsaicin-induced nocifensive behavior in WT mice; test: Capsaicin injection: acute nocifensive behavior; assay type: in vivo, mouse; details: capsaicin 0.6 μg, peptide 2 mM
Protocol: Mice were injected with 6 μL of capsaicin (0.1 μg/μL in normal saline/10% ethanol/0.5% Tween 80) in the hindpaws. The mice were placed in a plexiglass cylinder, and the total time spent licking and flinching was recorded for the first 10 minutes after injection.
(§1) The sequence from the last 28 amino acids of the C-terminus of the Tmem100-3Q mutant protein was synthesized and myristoylated at its N-terminus (myr-[…]-COOH) (SEQ ID NO: 8) by Twentyfirst Century Biochemicals. […] For the calcium imaging assay, the peptides were added to the calcium imaging buffer with a final concentration of 200 nM and incubated for at least […] at room temperature. For the mice behavioral assays, the peptides (5 μL, 2 mM) were injected subcutaneously in the hindpaw at least 30 minutes before testing. For the rat behavior assays, human T100-3Q (h-T100), a palmitoylated cell permeable peptide mutated based on the C terminus of human sequence in Tmem100, was applied. The sequence is Palmitoyl-[…]-COOH (SEQ ID NO: 7).

[3] = system: neuropathic mechanical hypersensitivity in SNL rats; assay type: in vivo, rat; details: intrathecal 10 μl; h-T100 10-100 μM, HC-030031 10-200 μM, scrambled 100 μM
Text: An modified L5 SNL model was produced as described in previously (He et al., 2014; Shechter et al., 2013). Male Sprague-Dawley rats (200-350 g, Harlan, Indianapolis, Ind.) were anesthetized with 2% isoflurane. The left L5 spinal nerve was ligated with a 6-0 silk suture and cut distally. The muscle layer was closed with 4-0 chromic gut suture and the skin closed with metal clips. For intrathecal catheter implantation, a small slit was cut in the atlanto-occipital membrane of rats, into which a saline-filled piece of PE-10 tubing (6-7 cm) was inserted (He et al., 2014). […] Hypersensitivity to punctuate mechanical stimulation was determined with the up-down method by using a series of von Frey filaments (0.38-15.1 g) applied for 4-6 seconds to the test area on the plantar surface of the hindpaw (Chaplan et al., 1994; He et al., 2014). The PWT was determined according to the formula provided by Dixon (Dixon, 1980). […] HC-030031 was purchased from Tocris Bioscience (Bristol, UK). Both drugs were dissolved in 10% dimethylsulfoxide (DMSO), 5% Tween 80 and 85% sterile saline solution. The final working solution which was injected by intrathecal route contained <1% DMSO. The number of animals used in each study was based on experience with similar studies and power analysis calculations. Animals were randomized to the different treatment groups and blinded the experimenter to drug treatment to reduce selection and observation bias. After the experiments were completed, no data point was excluded. STATISTICA 6.0 software (StatSoft, Inc., Tulsa, Okla.) was used to conduct all statistical analyses. The Tukey honestly significant difference (HSD) post-hoc test was used to compare specific data points. Bonferroni correction was applied for multiple comparisons. Two-tailed tests were performed, and data are expressed as mean±SEM; P<0.05 was considered significant in all tests.
as §1

[4] = system: ongoing neuropathic pain in SNL rats; test: Conditioned place preference test for ongoing pain in SNL rats; assay type: in vivo, rat; details: intrathecal 50 μM, 10 μl; scramble peptide-paired chamber as comparison
Text: Ongoing, or spontaneous, pain, which is most bothersome to patients, is difficult to treat and difficult to study in animals. The conditioned place preference test has been successfully developed to reveal the presence of non-evoked, ongoing pain and pain relief based on the preference of an animal for the context paired with a pain-relief treatment. The conditioned place preference can also capture the aversive aspects of pain. Strikingly, many studies have shown that the rodent conditioned place preference test accurately reflects the effectiveness of human clinical treatments. Therefore, this test is a powerful approach to investigate the potential effectiveness of new treatments and mechanisms for relief of ongoing pain. Two previous studies have examined the role of TRPA1 in ongoing pain by the conditioned place preference test. […] Because the antagonists used in those studies (HC030031 and Chem5861528) target TRPA1 monomers, it is possible that T100-Mut can inhibit ongoing pain by modulating the TRPA1/V1 complex. This possibility was tested in rodents with SNL-induced ongoing pain using the conditioned place preference test. […] Systemic administration of gabapentin, an analgesic that is known to alleviate neuropathic pain, was used as a positive control (FIG. 16B).

myr-QRVLEQVLQNWSRRANVKQAQKFQVKCT-COOH (Myristoyl-QRVLEQVLQNWSRRANVKQAQKFQVKCT-OH; SMILES CCCCCCCCCCCCCC(=O)N[C@@H](CCC(N)=O)C(=O)N[C@@H](CCCNC(=N)N)C(=O)N[C@H](C(=O)N[C@@H](CC(C)C)C(=O)N[C@@H](CCC(=O)O)C(=O)N[C@@H](CCC(N)=O)C(=O)N[C@H](C(=O)N[C@@H](CC(C)C)C(=O)N[C@@H](CCC(N)=O)C(=O)N[C@@H](CC(N)=O)C(=O)N[C@@H](Cc1c[nH]c2ccccc12)C(=O)N[C@@H](CO)C(=O)N[C@@H](CCCNC(=N)N)C(=O)N[C@@H](CCCNC(=N)N)C(=O)N[C@@H](C)C(=O)N[C@@H](CC(N)=O)C(=O)N[C@H](C(=O)N[C@@H](CCCCN)C(=O)N[C@@H](CCC(N)=O)C(=O)N[C@@H](C)C(=O)N[C@@H](CCC(N)=O)C(=O)N[C@@H](CCCCN)C(=O)N[C@@H](Cc1ccccc1)C(=O)N[C@@H](CCC(N)=O)C(=O)N[C@H](C(=O)N[C@@H](CCCCN)C(=O)N[C@@H](CS)C(=O)N[C@H](C(=O)O)[C@@H](C)O)C(C)C)C(C)C)C(C)C)C(C)C) [scrambled]
CFA-induced mechanical hyperalgesia (mechanical threshold) [1]: 0.05 ± 0.0 g | CFA-induced thermal hyperalgesia (latency) [1]: 3.9 ± 0.6 s | acute nocifensive behaviors induced by intradermal capsaicin injection [2]: 70 ± 11 s | ipsilateral paw withdrawal threshold (PWT) vs pre-drug [3]: no effect | conditioned place preference: time in drug-paired chamber, SNL rats [4]: no effect
